How the values were obtained:
[1] = Binding of bisphosphonate conjugates on hydroxyapatite powder (UV absorbency of supernatant); settings: pH 7.0
Description: A. To estimate the binding of BC on hydroxyapatite (mineral component of a bone) UV spectra of BC in buffer pH 7 were recorded before and after treatment with hydroxyapatite. To this end 10 μl of hydroxyapatite suspension in water was added to 1 ml of ˜10^−4 M solution of a BC in 0.1M Tris-HCl buffer, pH 7.0, 0.15 M NaCl and the mixture was intensively shaken for 10 minutes, and centrifuged for 5 minutes at 10,000 rpm in a microcentrifuge. The supernatant was separated and an absorbency spectrum of the supernatant was recorded.

[2] = Mineral-binding ability by retention time on hydroxyapatite HPLC column; settings: pH = 6.8, 2 mL/min
Description: B. […] The flow rate was 2 mL min^−1. […] Nucleoside mono-, di-, and triphosphates were recorded at a wavelength of 260 nm and zoledronate at a wavelength of 218 nm. The concentration of the eluted compounds was 0.3 mmol L^−1.

[3] = 1500 mM sodium phosphate buffer

| SMILES | % of bound compound [1] | % of nonbound compound [1] | Retention time on hydroxyapatite column ([2]; 500 mM sodium phosphate buffer) | Retention time on hydroxyapatite column [2, 3] |
| --- | --- | --- | --- | --- |
| O=c1[nH]c(=O)n(COCCOP(=O)(O)OP(=O)(O)CP(=O)(O)O)cc1F [II, Anhydride of 1-(2′-hydroxyethoxymethyl)-5-fluorouracil-2′-phosphate and methylenediphosphonic acid] | 87.26% | 12.74% | – | – |
| O=c1ccn([C@@H]2O[C@H](COP(=O)(O)OP(=O)(O)O)[C@@H](O)[C@H]2O)c(=O)[nH]1 [UDP] | – | – | 5.75 min | 3.47 min |
| O=c1ccn([C@@H]2O[C@H](COP(=O)(O)O)[C@@H](O)[C@H]2O)c(=O)[nH]1 [UMP] | – | – | 4.25 min | 3.42 min |
| O=c1ccn([C@@H]2O[C@H](COP(=O)(O)OP(=O)(O)OP(=O)(O)O)[C@@H](O)[C@H]2O)c(=O)[nH]1 [UTP] | – | – | – | 3.5 min |
| CC(O)(P(=O)(O)O)P(=O)(O)OP(=O)(O)OCC1OC(n2cc(F)c(=O)[nH]c2=O)C(O)C1O (stereo not drawn) [VI, anhydride of 5-Fluoro-uridine-5′-monophosphoric acid and 1-Hydroxyethylidene-1,1-diphosphonic acid] | 69.66% | 30.34% | 17.72 min | 6.00 min |
| O=P(O)(O)C(O)(Cn1ccnc1)P(=O)(O)O [Zoledronate, zoledronate] | – | – | – | 17.35 min |
